Entries after “also recorded” stand apart in the source; their conditions may differ.
Key:
[1] = tested on: Wistar Kyoto rat strain (WKY); conditions: WKY rats, literature; cited from earlier work
PC12 cells = assay: Stimulation of neuritic sprouting on PC12 cells differentiated with NGF; format: cell-based; conditions: NGF 10 ng/ml, steroid 30 μM, 3 days, relative to PREG
Description: Stimulation of neuritic sprouting is conducted on PC12 cells differentiated in the presence of NGF (10 ng/ml) and the steroid being tested (30 μM) for 3 days. For each condition, the average length of the longest 200 neurites in each cell is measured simultaneously for 3 cultures.

[2] = tested on: purified tubulin and MAP2; assay: Activity: increase in optical density at 345 nm of purified tubulin and MAP2 with GTP; format: biochemical; conditions: 37° C.
Description: Activity is measured by the increase in optical density at 345 nm of a mixture of purified tubulin and MAP2, incubated at 37° C. in the presence of GTP.

MAP2 = assay: Binding (affinity) by displacement of PREG-3H
[3] = molecular target: T1, human progesterone receptor (PR) (Homo sapiens, UniProt P06401); assay: Test of progesterone receptor agonist activity (MMTV-luciferase transactivation in transfected HEK293T cells); format: cell-based; conditions: 24 hours, increasing amounts, FIG. 1
T1 construct: expressed in transfected cells; host or cells: HEK293T
T1 sequence (P06401 1-933): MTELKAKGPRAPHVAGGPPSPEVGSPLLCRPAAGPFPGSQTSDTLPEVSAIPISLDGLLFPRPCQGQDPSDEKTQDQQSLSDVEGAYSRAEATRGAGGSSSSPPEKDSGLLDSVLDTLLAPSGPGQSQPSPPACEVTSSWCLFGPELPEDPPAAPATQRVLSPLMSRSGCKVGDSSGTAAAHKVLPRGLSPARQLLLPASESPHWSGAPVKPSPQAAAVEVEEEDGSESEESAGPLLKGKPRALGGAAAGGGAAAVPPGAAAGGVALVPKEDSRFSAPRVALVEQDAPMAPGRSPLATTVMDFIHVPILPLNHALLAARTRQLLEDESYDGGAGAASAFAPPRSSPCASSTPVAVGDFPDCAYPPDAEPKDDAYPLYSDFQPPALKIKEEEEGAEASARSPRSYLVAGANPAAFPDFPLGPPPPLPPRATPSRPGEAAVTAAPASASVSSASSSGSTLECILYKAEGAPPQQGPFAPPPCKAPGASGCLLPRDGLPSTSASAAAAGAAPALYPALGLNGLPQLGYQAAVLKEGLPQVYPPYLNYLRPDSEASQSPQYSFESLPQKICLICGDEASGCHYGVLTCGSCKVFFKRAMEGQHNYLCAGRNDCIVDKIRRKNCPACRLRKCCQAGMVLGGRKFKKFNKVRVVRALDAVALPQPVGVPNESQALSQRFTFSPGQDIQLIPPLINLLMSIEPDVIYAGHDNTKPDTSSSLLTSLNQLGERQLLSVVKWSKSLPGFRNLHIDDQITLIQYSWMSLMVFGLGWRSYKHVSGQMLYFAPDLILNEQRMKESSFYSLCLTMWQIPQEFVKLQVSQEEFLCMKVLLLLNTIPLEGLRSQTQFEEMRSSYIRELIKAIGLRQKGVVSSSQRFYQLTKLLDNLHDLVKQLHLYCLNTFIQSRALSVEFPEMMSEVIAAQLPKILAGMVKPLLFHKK
Description: The main experimental setting used is the following: HEK293T cells were transiently transfected, using calcium phosphate precipitation technology, with expression vectors pSG5hPR (which permits expression of human progesterone receptor (PR)), pFC31-luc (contains the luciferase gene under the control of the MMTV promoter, which is in turn activated by binding of a progestin to progesterone receptor) and pcbetagal (which permits expression of betagalactosidase), and cultured during 24 hours with increasing amounts of various compositions:
Test of Progesterone Receptor Agonist Activity: Transfected Cells were Cultured with Increasing Amounts of Progesterone or 3-Methoxy-Pregnenolone

[4] = Body weight of WKY rats under acute treatment; format: in vivo, rat; conditions: fluoxetine 10 mg/kg
WKY rats = conditions: cited from earlier work; for resistance of WKY rats to the drug: fluoxetine acute or chronic, citalopram acute, paroxetine sub-chronic (12 days)
Wistar Kyoto (WKY) rats = assay: Open-field arena (OFA) in WKY rats, acute treatment; format: in vivo, rat; conditions: fluoxetine 10 mg/kg i.p., ketamine 30 mg/kg i.p.; for number of entries in the central square of OFA, change vs WKY receiving only vehicle: FIG. 5B; for time spent in the center of open-field vs WKY receiving vehicle: FIG. 5C
Description: After a 6-day period of acclimatization, all experimental groups received daily successive subcutaneous (250 μl per rat) and intraperitoneal (1 ml/kg) injections. WI rats received injection of vehicle (sesame oil+saline) while WKY rats were randomly assigned to […] experimental groups, as follow: KWY rats receiving only vehicle (sesame oil+saline) and WKY rats treated with MAP4343 (10 mg/kg, s.c.; rats received in parallel i.p. injections of saline), fluoxetine (10 mg/kg i.p., rats received in parallel s.c. injections of sesame oil) or ketamine (30 mg/kg, i.p.; rats received in parallel s.c. injections of sesame oil) (see FIG. 3).
After, a 6-day period of acclimatization, the acute phase of treatment started for 4 days during behavioral tests were performed (FIG. 3). All animals were injected 1 h 30 before the starting of behavioral test.
The animals were individually placed in the open field arena (OFA) (70×100×70 cm), with a central square (35×50 cm), located in a 50 lux illuminated room and videotaped during 3 min using a computerized system (VideoTrack V2.5, ViewPoint, Lyon, France).
OFA allows firstly the evaluation of total locomotor activity (LMA) thereby measuring the total distance travelled in the arena (in cm). Secondly, measurements of the activity in the center of the arena like (i) the number of entries in the center of arena and (ii) the total time spent in the center of arena (in sec) provide cues of anxiety-like behavior (Prut and Belzung, 2003). All these behavioral parameters were instantaneously measured automatically with the VideoTrack V2.5 software from the videos.

Compound	Activity [2]	Affinity (MAP2)	other results
CNCCCN1c2ccccc2CCc2ccccc21 [desipramine]			immobility / depressive-like behavior in FST [1]: efficient to reverse depressive-like behavior
CC(=O)OC(C)C1CCC2C3CC=C4CC(O)CCC4(C)C3CCC12C (stereo not drawn) [Pregna-5-ene-3β, 20β-dio1-20-acetate]	108% of PREG	60% of PREG	Neuritic sprouting (PC12 cells): ++ (equal to)
NNCCc1ccccc1 [phenelzine]			immobility / depressive-like behavior in FST [1]: subacute efficacy to reduce immobility
CC(=O)[C@@]12C[C@@H]1C[C@H]1[C@@H]3CC=C4C[C@@H](O)CC[C@]4(C)[C@H]3CC[C@@]12C [PREG-16α,17α-methylene]	49% of PREG	62% of PREG	Neuritic sprouting (PC12 cells): + (lower than)
CO[C@H]1CC[C@@]2(C)C(=CC[C@H]3C4=CC[C@H](C(C)=O)[C@@]4(C)CC[C@@H]32)C1 [3β-methoxy-pregna-5,14-diene-20-one]	50% of PREG	102% of PREG	
CC(=O)[C@H]1CC[C@H]2[C@@H]3CC=C4C[C@@H](O)CC[C@]4(C)[C@H]3CC[C@]12C [Pregnenolone (PREG), 3β-hydroxypregn-5α-en-20α-one, reference compound]	100% of PREG	100% of PREG	Neuritic sprouting (PC12 cells): ++ (equal to)
CC(=O)[C@H]1CC[C@H]2[C@@H]3CCC4=CC(=O)CC[C@]4(C)[C@H]3CC[C@]12C [progesterone, reference compound]			progesterone receptor agonist activity (transactivation, expression of luciferase) [3]: permits a transactivation activity
PREG-16α,17α-epoxy	54% of PREG	41% of PREG	Neuritic sprouting (PC12 cells): + (lower than)
CC(=O)[C@H]1[C@@H](C)C[C@H]2[C@@H]3CC=C4C[C@@H](O)CC[C@]4(C)[C@H]3CC[C@@]21C [PREG-16β-methyl]	67% of PREG	63% of PREG	
CNCCC(Oc1ccc(C(F)(F)F)cc1)c1ccccc1 (stereo not drawn) [fluoxetine]			body weight [4]: a reduced body weight; efficacy in OFA, EPM and FST (WKY rats; WKY rats, acute or chronic administration): no efficacy; resistance of WKY rats to the drug (WKY rats): resistant; number of entries in the central square of OFA, change vs WKY receiving only vehicle (Wistar Kyoto (WKY) rats; MAP4343 10 mg/kg s.c.): failed to significantly modify the low entries in the center; time spent in the center of open-field vs WKY receiving vehicle (Wistar Kyoto (WKY) rats; MAP4343 10 mg/kg s.c.): did not induce any significant change of this measure; locomotor activity (total distance travelled in the open-field arena), change vs MAP4343-treated WKY (Wistar Kyoto (WKY) rats; FIG. 5A): −52%
CO[C@H]1CC[C@@]2(C)[C@@H](CC[C@@H]3[C@@H]2CC[C@]2(C)[C@@H](C(C)=O)CC[C@@H]32)C1 [3β-methoxy-5α-pregnane-20-one]	10% of PREG	87% of PREG	
CC(=O)[C@H]1[C@H](C)C[C@H]2[C@@H]3CC[C@H]4C[C@@H](O)CC[C@]4(C)[C@H]3CC[C@@]21C [3β-hydroxy-5α-pregnane-20-one-16α-methyl]	53% of PREG	57% of PREG	
CO[C@H]1CC[C@@]2(C)C(CCC3C2CC[C@@]2(C)C3CC[C@@H]2[C@@H](C)O)C1 (stereo partly drawn) [3β-methoxy-5α-pregnane-20β-ol]	65% of PREG	65% of PREG	
Fc1ccc([C@@H]2CCNC[C@H]2COc2ccc3c(c2)OCO3)cc1 [paroxetine]			resistance of WKY rats to the drug (WKY rats): resistant
CNC1(c2ccccc2Cl)CCCCC1=O (stereo not drawn) [ketamine]			immobility / depressive-like behavior in FST [1]: elicited antidepressant-like effect; also recorded: decrease immobility; locomotor activity (total distance travelled in the open-field arena), change vs WKY receiving vehicle (Wistar Kyoto (WKY) rats; MAP4343 10 mg/kg s.c., 3 min, FIG. 5A): no significant change of locomotor activity; number of entries in the central square of OFA, change vs WKY receiving only vehicle (Wistar Kyoto (WKY) rats; MAP4343 10 mg/kg s.c.): failed to significantly modify the low entries in the center; time spent in the center of open-field vs WKY receiving vehicle (Wistar Kyoto (WKY) rats; MAP4343 10 mg/kg s.c.): did not induce any significant change of this measure; locomotor activity (total distance travelled in the open-field arena), change vs MAP4343-treated WKY (Wistar Kyoto (WKY) rats; FIG. 5A): no significant change of locomotor activity
CC(=O)[C@H]1[C@H](C)C[C@H]2[C@@H]3CC=C4C[C@@H](O)CC[C@]4(C)[C@H]3CC[C@@]21C [PREG-16α-methyl]	70% of PREG	80% of PREG	Neuritic sprouting (PC12 cells): ++ (equal to)
CO[C@H]1CC[C@@]2(C)C(=CC[C@@H]3[C@@H]2CC[C@@]2(C)[C@H]3CC[C@@]2(C(C)=O)C(Cl)Cl)C1 [3β-methoxy-pregna-5-ene-20-one-17α-dichloromethyl]	113% of PREG	53% of PREG	
